# US11149031B2, “Substituted N-(3-fluoropropyl)-pyrrolidine compounds, processes for their preparation and therapeutic uses thereof” (SANOFI, priority 2016, dated 2021)
# Where two headings read alike, the source gives them in different places.
# Tests used:
# [1] = molecular target: His6-ERα298-554 WT (ERα ligand-binding domain) (Homo sapiens (Human), UniProt P03372); assay: Test A: biochemical antagonist activity, LanthaScreen TR-FRET ERα coactivator assay, WT; conditions: read-out: Antagonism WT IC50
# Sequence of His6-ERα298-554 WT (ERα ligand-binding domain) (P03372 298-554): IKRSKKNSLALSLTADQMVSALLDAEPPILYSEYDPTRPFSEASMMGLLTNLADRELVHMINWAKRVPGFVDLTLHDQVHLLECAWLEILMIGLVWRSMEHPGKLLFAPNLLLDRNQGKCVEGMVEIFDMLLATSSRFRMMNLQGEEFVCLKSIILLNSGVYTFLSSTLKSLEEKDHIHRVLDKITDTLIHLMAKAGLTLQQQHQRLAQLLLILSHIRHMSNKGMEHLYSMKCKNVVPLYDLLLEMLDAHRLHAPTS
# In short: (§1)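 IC50 values come from a 4-parameter logistic fit of the 520:495 nm TR-FRET ratio after overnight room-temperature incubation. The mix held 0.5 nM ERα 298–554 LBD, Tb-labelled anti-His6 antibody, 250 nM PGC1a peptide and 3 nM or 10 nM estradiol, pH 7.4 phosphate buffer with DTT.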
# [2] = molecular target: His6-ERα298-554 D538G mutant (ERα ligand-binding domain) (Homo sapiens (Human), UniProt P03372, D538G); assay: Test A: biochemical antagonist activity, LanthaScreen TR-FRET ERα coactivator assay, D538G mutant; conditions: read-out: Antagonism D538G IC50
# Sequence of His6-ERα298-554 D538G mutant (ERα ligand-binding domain) (P03372 298-554 D538G): as the sequence (P03372 298-554) above, with D241G counted along it
# In short: as §1
# [3] = molecular target: His6-ERα298-554 Y537S mutant (ERα ligand-binding domain) (Homo sapiens (Human), UniProt P03372, Y537S); assay: Test A: biochemical antagonist activity, LanthaScreen TR-FRET ERα coactivator assay, Y537S mutant; conditions: read-out: Antagonism Y537S IC50
# Sequence of His6-ERα298-554 Y537S mutant (ERα ligand-binding domain) (P03372 298-554 Y537S): as the sequence (P03372 298-554) above, with Y240S counted along it
# In short: as §1
# [4] = test system: MCF7 cells (breast tumor cells) WT; assay: Test B: cell proliferation/viability assay (CellTiter-Glo) on MCF7 WT; assay type: cell-based; conditions: Homo sapiens, MCF7, 168 h, 7 days of compound exposure
# Protocol: (§2) Test B: Cell Proliferation/Viability Assay on MCF7 (Breast Tumor Cells) WT and Mutants Cell Lines
# (§3) Test B involves measuring the in vitro proliferation activity of the compounds of the invention by analyzing the viability of the tumor cells.
# The measurements of the viability were made using a breast cancer cell viability assay as described hereunder. […]
# (§4) MCF7 cells (ATCC) or MCF7 cells expressing (and dependent) on mutants estrogen receptor Tyr 537 Ser or Asp 538 Gly were seeded in 384 wells microplate at concentration of >999 cells/30 μL per well in red phenol free MEM medium containing 5% charcoal dextran striped FBS. The following day, 9 points serial 1:5 dilution of each compound were added to the cells in 20 μL at final concentrations ranging from 3-0.000001 μM. After 7 days of compound exposure, 50 μL of CellTiter-Glo (promega) was added to the cells and relative luminescence arbitrary units (RLUs) were determined in luminescence plate reader (Envision device). CellTiter-Glo was added to 50 μL medium without cells to determine the background signal.
# (§5) The percent of viability of each sample was determined as follows: (RLU sample−RLU background/RLU untreated−RLU background)*100=% viability.
# [5] = test system: MCF7 cells expressing mutant estrogen receptor Tyr 537 Ser; assay: Test B: cell proliferation/viability assay (CellTiter-Glo) on MCF7 Tyr 537 Ser mutant; assay type: cell-based; conditions: Homo sapiens, MCF7, 168 h, MCF7 cells expressing ER Tyr 537 Ser mutant, 7 days of compound exposure, read-out: proliferation MCF7 Y537S IC50
# Description: as §2, §3
# (§6) The measurements of the viability were made using a breast cancer cell viability assay as described hereunder.
# (§7) MCF7 cells expressing (and dependent) on mutants estrogen receptor Tyr 537 Ser or Asp 538 Gly were generated by transfection of MCF7 parental cells (ATCC) with expression vectors coding for different mutants of estrogen receptor Tyr 537 Ser or Asp 538 Gly. The cells were first selected by antibiotic (related to vector expression) and then selected for their growth dependence on estrogen receptor based on their ability to grow in vitro in absence of estradiol (parental cell line die in absence of estradiol).
# as §4, §5
# [6] = test system: MCF7 cells expressing mutant estrogen receptor Asp 538 Gly; assay: Test B: cell proliferation/viability assay (CellTiter-Glo) on MCF7 Asp 538 Gly mutant; assay type: cell-based; conditions: Homo sapiens, MCF7, 168 h, MCF7 cells expressing ER Asp 538 Gly mutant, 7 days of compound exposure, read-out: proliferation MCF7 D538G IC50
# Description: as §2, §3, §6, §7, §4, §5
# ERα in MCF7 cells = ERα in MCF7 cells (Homo sapiens (Human), UniProt P03372); assay: Test C: estrogen receptor degradation activity, ERα in cell western assay in MCF7 cells; assay type: cell-based; conditions: for DC50: 4 hours post compound addition, ERα in cell western, read-out: Degradation IC50; for % Degradation at 3 μM: 4 hours, relative to fulvestrant
# Sequence of ERα in MCF7 cells (P03372 whole entry): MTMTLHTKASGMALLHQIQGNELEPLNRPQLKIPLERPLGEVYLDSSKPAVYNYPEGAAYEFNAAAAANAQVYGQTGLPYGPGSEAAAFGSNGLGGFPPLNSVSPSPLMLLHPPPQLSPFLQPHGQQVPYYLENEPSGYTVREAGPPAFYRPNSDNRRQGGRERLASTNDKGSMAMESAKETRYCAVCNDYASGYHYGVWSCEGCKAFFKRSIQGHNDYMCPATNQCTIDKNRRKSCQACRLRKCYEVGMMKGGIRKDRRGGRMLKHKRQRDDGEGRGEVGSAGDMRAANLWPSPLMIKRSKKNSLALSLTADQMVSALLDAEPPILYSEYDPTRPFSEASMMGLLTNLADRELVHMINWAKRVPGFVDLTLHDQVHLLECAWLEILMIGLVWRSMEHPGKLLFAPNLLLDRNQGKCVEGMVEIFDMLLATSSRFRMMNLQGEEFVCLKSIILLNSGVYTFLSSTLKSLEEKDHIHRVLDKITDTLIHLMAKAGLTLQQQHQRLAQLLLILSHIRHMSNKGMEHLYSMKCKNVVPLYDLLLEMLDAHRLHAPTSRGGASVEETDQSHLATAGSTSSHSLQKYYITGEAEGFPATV
# In short: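 In-cell western: ERα level (green) against DNA stain Syto-64 (red) by integrated intensity. MCF7 cells in hormone-depleted medium exposed 4 h to compound at 3-0.000018 μM final (1:5 series); fulvestrant 0.1 μM as positive control.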
# [7] = asterisk (*): protocol using 10 nM estradiol
SMILES,IC50 ([1]; protocol with 3 nM estradiol) [nM],IC50 ([2]; protocol with 3 nM estradiol) [nM],IC50 ([3]; protocol with 3 nM estradiol) [nM],IC50 [4] [nM],IC50 [5] [nM],IC50 [6] [nM],DC50 (ERα in MCF7 cells) [nM],% Degradation at 3 μM (ERα in MCF7 cells) [%],"IC50 [1, 7] [nM]","IC50 [2, 7] [nM]","IC50 [3, 7] [nM]"
"Oc1ccc2c(c1)SCC(c1ccc(OC(F)F)c(F)c1)=C2c1ccc(O[C@H]2CCN(CCCF)C2)cc1 [Example 30, 3-[4-(difluoromethoxy)-3-fluoro-phenyl]-4-[4-[(3S)-1-(3-fluoropropyl)pyrrolidin-3-yl]oxyphenyl]-2H-thiochromen-7-ol]",34,694,415,1,16,2,1,91,,,
"Oc1ccc2c(c1)SCC(c1ccc3c(c1)OC(F)(F)O3)=C2c1ccc(O[C@H]2CCN(CCCF)C2)cc1 [Example 31, 3-(2,2-difluoro-1,3-benzodioxol-5-yl)-4-[4-[(3S)-1-(3-fluoropropyl)pyrrolidin-3-yl]oxyphenyl]-2H-thiochromen-7-ol]",5,101,59,0.4,6,1,0.7,86,,,
"CC1(C)Cc2cc(C3=C(c4ccc(O[C@H]5CCN(CCCF)C5)cc4)c4ccc(O)cc4SC3)ccc2O1 [Example 32, 3-(2,2-dimethyl-3H-benzofuran-5-yl)-4-[4-[(3S)-1-(3-fluoropropyl)pyrrolidin-3-yl]oxyphenyl]-2H-thiochromen-7-ol]",,,,0.4,6,1,0.8,87,19,314,168
"CC(C)(O)c1ccc(C2=C(c3ccc(O[C@H]4CCN(CCCF)C4)cc3)c3ccc(O)cc3SC2)c(F)c1 [Example 33, 3-[2-fluoro-4-(1-hydroxy-1-methyl-ethyl)phenyl]-4-[4-[(3S)-1-(3-fluoropropyl)pyrrolidin-3-yl]oxyphenyl]-2H-thiochromen-7-ol]",,,,4,22,2,1,84,66,1690,596
"[2H]C([2H])([2H])Oc1ccc(C2=C(c3ccc(O[C@H]4CCN(CCCF)C4)cc3)c3ccc(O)cc3SC2)c(F)c1 [Example 34, 4-[4-[(3S)-1-(3-fluoropropyl)pyrrolidin-3-yl]oxyphenyl]-3-[2-fluoro-4-(trideuteriomethoxy)phenyl]-2H-thiochromen-7-ol]",,,,0.5,4,0.5,0.4,85,4,83,46
"Oc1ccc2c(c1)SCC(c1ccc(OC(F)F)cc1F)=C2c1ccc(O[C@H]2CCN(CCCF)C2)cc1 [Example 35, 3-[4-(difluoromethoxy)-2-fluoro-phenyl]-4-[4-[(3S)-1-(3-fluoropropyl)pyrrolidin-3-yl]oxyphenyl]-2H-thiochromen-7-ol]",,,,0.2,2,0.3,1,89,16,421,220
"CCOc1ccc(C2=C(c3ccc(O[C@H]4CCN(CCCF)C4)cc3)c3ccc(O)cc3SC2)c(Cl)c1 [Example 36, 3-(2-chloro-4-ethoxy-phenyl)-4-[4-[(3S)-1-(3-fluoropropyl)pyrrolidin-3-yl]oxyphenyl]-2H-thiochromen-7-ol]",,,,0.5,3,0.5,0.2,83,11,257,154
"Oc1ccc2c(c1)SCC(c1ccc(OC(F)(F)F)cc1F)=C2c1ccc(O[C@H]2CCN(CCCF)C2)cc1 [Example 37, 4-[4-[(3S)-1-(3-fluoropropyl)pyrrolidin-3-yl]oxyphenyl]-3-[2-fluoro-4-(trifluoromethoxy)phenyl]-2H-thiochromen-7-ol]",41,745,475,0.6,4,0.6,3,83,,,
"O=C1COc2ccc(C3=C(c4ccc(O[C@H]5CCN(CCCF)C5)cc4)c4ccc(O)cc4SC3)cc2N1 [Example 38, 6-[4-[4-[(3S)-1-(3-fluoropropyl)pyrrolidin-3-yl]oxyphenyl]-7-hydroxy-2H-thiochromen-3-yl]-4H-1,4-benzoxazin-3-one]",,,,12,> 999,16,12,86,604,> 4000,3710
"CCOc1ccc(C2=C(c3ccc(O[C@H]4CCN(CCCF)C4)cc3)c3ccc(O)cc3SC2)c(C)c1 [Example 39, 3-(4-ethoxy-2-methyl-phenyl)-4-[4-[(3S)-1-(3-fluoropropyl)pyrrolidin-3-yl]oxyphenyl]-2H-thiochromen-7-ol]",,,,0.4,2,0.5,0.7,86,9,221,127
"CCOc1cc(F)c(C2=C(c3ccc(O[C@H]4CCN(CCCF)C4)cc3)c3ccc(O)cc3SC2)cc1F [Example 40, 3-(4-ethoxy-2,5-difluoro-phenyl)-4-[4-[(3S)-1-(3-fluoropropyl)pyrrolidin-3-yl]oxyphenyl]-2H-thiochromen-7-ol]",,,,1,20,2,0.2,81,44,901,605
"CCOc1ccc(C2=C(c3ccc(O[C@H]4CCN(CCCF)C4)cc3)c3ccc(O)cc3SC2)c(F)c1F [Example 41, 3-(4-ethoxy-2,3-difluoro-phenyl)-4-[4-[(3S)-1-(3-fluoropropyl)pyrrolidin-3-yl]oxyphenyl]-2H-thiochromen-7-ol]",,,,0.9,4,1,1,85,27,740,407
"NS(=O)(=O)c1ccc(C2=C(c3ccc(O[C@H]4CCN(CCCF)C4)cc3)c3ccc(O)cc3SC2)cc1 [Example 42, 4-[4-[4-[(3S)-1-(3-fluoropropyl)pyrrolidin-3-yl]oxyphenyl]-7-hydroxy-2H-thiochromen-3-yl]benzenesulfonamide]",,,,46,809,31,11,89,674,> 4000,> 4000
"CCOc1cc(Cl)ccc1C1=C(c2ccc(O[C@H]3CCN(CCCF)C3)cc2)c2ccc(O)cc2SC1 [Example 43, 3-(4-chloro-2-ethoxy-phenyl)-4-[4-[(3S)-1-(3-fluoropropyl)pyrrolidin-3-yl]oxyphenyl]-2H-thiochromen-7-ol]",,,,0.4,11,1,0.8,97,96,1140,673
